Measurements as given in US10004701B2, “Methods and compositions for treating infection” (UNIVERSITY OF ROCHESTER, priority 2012, dated 2018).
Structures can show the parent of a compound that is named as a salt. Where two headings read alike, the source gives them in different places.

Key:
Experiment in all cases: AK assay 384-well format, Prestwick library screening
E. faecium = type: cell-based, Enterococcus faecium; details: 50 μM final drug concentration; for fold induction at 50 µM: Enterococcus faecium, 3 h
[1] = system: S. aureus strain USA300-0114; type: cell-based, Staphylococcus aureus; details: 50 μM final drug concentration; for fold induction at 50 µM: Staphylococcus aureus, USA300, 3 h
K. pneumoniae = type: cell-based, Klebsiella pneumoniae; details: 50 μM final drug concentration; for fold induction at 50 µM: Klebsiella pneumoniae, 3 h
[2] = system: A. baumannii strain 98-37-09; type: cell-based, Acinetobacter baumannii; details: 50 μM final drug concentration; for fold induction at 50 µM: Acinetobacter baumannii, 983709, 3 h
P. aeruginosa = type: cell-based, Pseudomonas aeruginosa; details: 50 μM final drug concentration; for fold induction at 50 µM: Pseudomonas aeruginosa, 3 h
E. cloacae = type: cell-based, Enterobacter cloacae; details: 50 μM final drug concentration; for fold induction at 50 µM: Enterobacter cloacae, 3 h
E. coli = type: cell-based, Escherichia coli; details: 50 μM final drug concentration; for fold induction at 50 µM: Escherichia coli, 3 h
[3] = planktonic E. faecium, positive cutoff 3-fold increase
[4] = planktonic S. aureus, positive cutoff 3-fold increase
[5] = planktonic K. pneumoniae, positive cutoff 3-fold increase
[6] = planktonic A. baumannii, positive cutoff 3-fold increase
[7] = planktonic P. aeruginosa, positive cutoff 3-fold increase
[8] = planktonic E. cloacae, positive cutoff 3-fold increase
[9] = 384-well format, cutoff for positive-scoring molecules 3-fold increase, read-out: AK-based Prestwick Library Screening Results, E. faecium (increase in extracellular AK activity)
[10] = 384-well format, cutoff for positive-scoring molecules 3-fold increase, read-out: AK-based Prestwick Library Screening Results, S. aureus (increase in extracellular AK activity)
[11] = 384-well format, cutoff for positive-scoring molecules 3-fold increase, read-out: AK-based Prestwick Library Screening Results, K. pneumoniae (increase in extracellular AK activity)
[12] = 384-well format, cutoff for positive-scoring molecules 3-fold increase, read-out: AK-based Prestwick Library Screening Results, A. baumannii (increase in extracellular AK activity)
[13] = 384-well format, cutoff for positive-scoring molecules 3-fold increase, read-out: AK-based Prestwick Library Screening Results, P. aeruginosa (increase in extracellular AK activity)
[14] = 384-well format, cutoff for positive-scoring molecules 3-fold increase, read-out: AK-based Prestwick Library Screening Results, E. cloacae (increase in extracellular AK activity)
[15] = 384-well format, cutoff for positive-scoring molecules 3-fold increase, read-out: AK-based Prestwick Library Screening Results, E. coli (increase in extracellular AK activity)

`COc1c2c(nc3ccccc13)OC(C(C)(O)CO)C2` (stereo not shown) [Dubinidine] was tested, and the “AK-based Prestwick library screening result, E. faecium (fold increase in extracellular AK activity)” value (E. faecium; [3]) was 1.0, the “AK-based Prestwick library screening result, S. aureus (fold increase in extracellular AK activity)” value [1, 4] was 2.4 and the “AK-based Prestwick library screening result, K. pneumoniae (fold increase in extracellular AK activity)” value (K. pneumoniae; [5]) was 0.9. For the same compound, the “AK-based Prestwick library screening result, A. baumannii (fold increase in extracellular AK activity)” value [2, 6] was 1.1, the “AK-based Prestwick library screening result, P. aeruginosa (fold increase in extracellular AK activity)” value (P. aeruginosa; [7]) was 1.0 and the “AK-based Prestwick library screening result, E. cloacae (fold increase in extracellular AK activity)” value (E. cloacae; [8]) was 1.3. For the same compound, the “AK-based Prestwick library screening result, E. coli (fold increase in extracellular AK activity)” value (E. coli; planktonic E. coli, […]) was 1.4.

`Br.C[N+]1([O-])[C@@H]2CC(OC(=O)[C@H](CO)c3ccccc3)C[C@H]1[C@@H]1O[C@@H]12` (stereo partly shown) [Scopolamin-N-oxide hydrobromide] was tested, and the “AK-based Prestwick Library Screening Results: E. faecium (increase in extracellular AK activity)” value (E. faecium; planktonic E. faecium, 384-well, […]) was 1.1, the “AK-based Prestwick Library Screening Results: S. aureus (increase in extracellular AK activity)” value ([1]; planktonic S. aureus, 384-well, […]) was 1.4 and the “AK-based Prestwick Library Screening Results: K. pneumoniae (increase in extracellular AK activity)” value (K. pneumoniae; planktonic K. pneumoniae, 384-well, […]) was 1.2. The “AK-based Prestwick Library Screening Results: A. baumannii (increase in extracellular AK activity)” value ([2]; planktonic A. baumannii, 384-well, […]) was 1.4, the “AK-based Prestwick Library Screening Results: P. aeruginosa (increase in extracellular AK activity)” value (P. aeruginosa; planktonic P. aeruginosa, 384-well, […]) was 1.3 and the “AK-based Prestwick Library Screening Results: E. cloacae (increase in extracellular AK activity)” value (E. cloacae; planktonic E. cloacae, 384-well, […]) was 1.5. The “AK-based Prestwick Library Screening Results: E. coli (increase in extracellular AK activity)” value (E. coli; planktonic E. coli, 384-well, […]) was 1.2.

`CNCC(O)c1ccc(O)cc1` (racemic) [(+,−)-Synephrine] was tested, and the “AK-based Prestwick library screening result, E. faecium (fold increase in extracellular AK activity)” value (E. faecium; [3]) was 1.1, the “AK-based Prestwick library screening result, S. aureus (fold increase in extracellular AK activity)” value [1, 4] was 1.0 and the “AK-based Prestwick library screening result, K. pneumoniae (fold increase in extracellular AK activity)” value (K. pneumoniae; [5]) was 1.0. For the same compound, the “AK-based Prestwick library screening result, A. baumannii (fold increase in extracellular AK activity)” value [2, 6] was 1.1, the “AK-based Prestwick library screening result, P. aeruginosa (fold increase in extracellular AK activity)” value (P. aeruginosa; [7]) was 1.1 and the “AK-based Prestwick library screening result, E. cloacae (fold increase in extracellular AK activity)” value (E. cloacae; [8]) was 1.3. The “AK-based Prestwick library screening result, E. coli (fold increase in extracellular AK activity)” value (E. coli; planktonic E. coli, positive cutoff 3-fold increase) was 1.3.

Work on `C[C@H]1CC[C@]2(NC1)O[C@H]1C[C@H]3[C@@H]4CC[C@H]5C[C@@H](O[C@@H]6O[C@H](CO)[C@H](O[C@@H]7O[C@H](CO)[C@@H](O)[C@H](O[C@@H]8OC[C@@H](O)[C@H](O)[C@H]8O)[C@H]7O[C@@H]7O[C@H](CO)[C@@H](O)[C@H](O)[C@H]7O)[C@H](O)[C@H]6O)CC[C@]5(C)[C@H]4CC[C@]3(C)[C@H]1[C@@H]2C` [Tomatine] yielded a fold induction at 50 µM (E. faecium; 384-well format, […], read-out: AK-based Prestwick Library Screening Results, E. faecium (increase in extracellular AK activity)) of 1, a fold induction at 50 µM ([1]; 384-well format, […], read-out: AK-based Prestwick Library Screening Results, S. aureus (increase in extracellular AK activity)) of 0.8 and a fold induction at 50 µM (K. pneumoniae; 384-well format, […], read-out: AK-based Prestwick Library Screening Results, K. pneumoniae (increase in extracellular AK activity)) of 0.7. The fold induction at 50 µM ([2]; 384-well format, […], read-out: AK-based Prestwick Library Screening Results, A. baumannii (increase in extracellular AK activity)) was 1, the fold induction at 50 µM (P. aeruginosa; 384-well format, […], read-out: AK-based Prestwick Library Screening Results, P. aeruginosa (increase in extracellular AK activity)) was 0.8 and the fold induction at 50 µM (E. cloacae; 384-well format, […], read-out: AK-based Prestwick Library Screening Results, E. cloacae (increase in extracellular AK activity)) was 1.1. It also gave a fold induction at 50 µM (E. coli; 384-well format, […], read-out: AK-based Prestwick Library Screening Results, E. coli (increase in extracellular AK activity)) of 0.9.

Compound `O=C(O)c1ccccc1Nc1cccc(C(F)(F)F)c1` [Flufenamic acid] has a fold induction at 50 µM (E. faecium; planktonic E. faecium, 384-well, […], read-out: AK-based Prestwick Library Screening Results: E. faecium (increase in extracellular AK activity)) of 1, a fold induction at 50 µM ([1]; planktonic S. aureus, 384-well, […], read-out: AK-based Prestwick Library Screening Results: S. aureus (increase in extracellular AK activity)) of 0.5 and a fold induction at 50 µM (K. pneumoniae; planktonic K. pneumoniae, 384-well, […], read-out: AK-based Prestwick Library Screening Results: K. pneumoniae (increase in extracellular AK activity)) of 1. The fold induction at 50 µM ([2]; planktonic A. baumannii, 384-well, […], read-out: AK-based Prestwick Library Screening Results: A. baumannii (increase in extracellular AK activity)) was 1.3, the fold induction at 50 µM (P. aeruginosa; planktonic P. aeruginosa, 384-well, […], read-out: AK-based Prestwick Library Screening Results: P. aeruginosa (increase in extracellular AK activity)) was 1.1 and the fold induction at 50 µM (E. cloacae; planktonic E. cloacae, 384-well, […], read-out: AK-based Prestwick Library Screening Results: E. cloacae (increase in extracellular AK activity)) was 1.8. It also gave a fold induction at 50 µM (E. coli; planktonic E. coli, 384-well, […], read-out: AK-based Prestwick Library Screening Results: E. coli (increase in extracellular AK activity)) of 1.

For `O=C(N[C@H](CO)[C@H](O)c1ccc([N+](=O)[O-])cc1)C(Cl)Cl` [Chloramphenicol], the fold induction at 50 µM (E. faecium; [9]) was 0.8, the fold induction at 50 µM [1, 10] was 9.7 and the fold induction at 50 µM (K. pneumoniae; [11]) was 0.2. The fold induction at 50 µM [2, 12] was 1, the fold induction at 50 µM (P. aeruginosa; [13]) was 0.8 and the fold induction at 50 µM (E. cloacae; [14]) was 1.5. It also gave a fold induction at 50 µM (E. coli; [15]) of 0.7.

In the case of `OC(c1cc(C(F)(F)F)nc2c(C(F)(F)F)cccc12)C1CCCCN1` (stereo not shown) [Mefloquine hydrochloride], the fold induction at 50 µM (E. faecium; [9]) is reported as 1, the fold induction at 50 µM [1, 10] is reported as 3.2 and the fold induction at 50 µM (K. pneumoniae; [11]) is reported as 1.3. It also gave a fold induction at 50 µM [2, 12] of 2.6, a fold induction at 50 µM (P. aeruginosa; [13]) of 1.1 and a fold induction at 50 µM (E. cloacae; [14]) of 1.2. For the same compound, the fold induction at 50 µM (E. coli; [15]) was 1.3.

Compound `CC(=O)O[C@]1(C(C)=O)CC[C@H]2[C@@H]3C=C(C)C4=CC(=O)CC[C@@H]4[C@H]3CC[C@@]21C` [Nomegestrol acetate] has a fold induction at 50 µM (E. faecium; planktonic E. faecium, positive cutoff 3-fold increase, read-out: AK-based Prestwick library screening result, E. faecium (fold increase in extracellular AK activity)) of 1.2, a fold induction at 50 µM ([1]; planktonic S. aureus, positive cutoff 3-fold increase, read-out: AK-based Prestwick library screening result, S. aureus (fold increase in extracellular AK activity)) of 1 and a fold induction at 50 µM (K. pneumoniae; planktonic K. pneumoniae, positive cutoff 3-fold increase, read-out: AK-based Prestwick library screening result, K. pneumoniae (fold increase in extracellular AK activity)) of 1.1. The fold induction at 50 µM ([2]; planktonic A. baumannii, positive cutoff 3-fold increase, read-out: AK-based Prestwick library screening result, A. baumannii (fold increase in extracellular AK activity)) was 1.1, the fold induction at 50 µM (P. aeruginosa; planktonic P. aeruginosa, positive cutoff 3-fold increase, read-out: AK-based Prestwick library screening result, P. aeruginosa (fold increase in extracellular AK activity)) was 1.1 and the fold induction at 50 µM (E. cloacae; planktonic E. cloacae, positive cutoff 3-fold increase, read-out: AK-based Prestwick library screening result, E. cloacae (fold increase in extracellular AK activity)) was 1.5. For the same compound, the fold induction at 50 µM (E. coli; planktonic E. coli, positive cutoff 3-fold increase, read-out: AK-based Prestwick library screening result, E. coli (fold increase in extracellular AK activity)) was 1.1.

Work on `CS(=O)(=O)c1ccc([C@@H](O)[C@@H](CO)NC(=O)C(Cl)Cl)cc1` [Thiamphenicol] yielded a fold induction at 50 µM (E. faecium; [9]) of 0.9, a fold induction at 50 µM [1, 10] of 8.7 and a fold induction at 50 µM (K. pneumoniae; [11]) of 0.4. It also gave a fold induction at 50 µM [2, 12] of 0.9, a fold induction at 50 µM (P. aeruginosa; [13]) of 0.8 and a fold induction at 50 µM (E. cloacae; [14]) of 1.4. For the same compound, the fold induction at 50 µM (E. coli; [15]) was 0.9.

In the case of `CCOC(=O)[N-]c1cn(N2CCOCC2)n[o+]1` [Molsidomine], the fold induction at 50 µM (E. faecium; planktonic, cutoff for positive 3-fold increase, read-out: AK-based Prestwick Library Screening Results, E. faecium (fold increase in extracellular AK activity)) is reported as 0.9, the fold induction at 50 µM ([1]; planktonic, cutoff for positive 3-fold increase, read-out: AK-based Prestwick Library Screening Results, S. aureus (fold increase in extracellular AK activity)) is reported as 0.9 and the fold induction at 50 µM (K. pneumoniae; planktonic, cutoff for positive 3-fold increase, read-out: AK-based Prestwick Library Screening Results, K. pneumoniae (fold increase in extracellular AK activity)) is reported as 1. The fold induction at 50 µM ([2]; planktonic, cutoff for positive 3-fold increase, read-out: AK-based Prestwick Library Screening Results, A. baumannii (fold increase in extracellular AK activity)) was 1.2, the fold induction at 50 µM (P. aeruginosa; planktonic, cutoff for positive 3-fold increase, read-out: AK-based Prestwick Library Screening Results, P. aeruginosa (fold increase in extracellular AK activity)) was 1.1 and the fold induction at 50 µM (E. cloacae; planktonic, cutoff for positive 3-fold increase, read-out: AK-based Prestwick Library Screening Results, E. cloacae (fold increase in extracellular AK activity)) was 1.5. For the same compound, the fold induction at 50 µM (E. coli; planktonic, cutoff for positive 3-fold increase, read-out: AK-based Prestwick Library Screening Results, E. coli (fold increase in extracellular AK activity)) was 1.4.
